Measurements as given in patent US10562912B2 (C&C Research Laboratories, priority 2013, dated 2020).

What was measured:
Assay type in all cases: cell-based
[1] = target: T1, STAT3 (Homo sapiens, UniProt P40763); test: STAT3 reporter gene assay (luciferase), LNCaP stable cell line (pSTAT3-TA-luc), IL-6 stimulation
T1 construct: plasmid pSTAT3-TA-luc), which contains a stably operating STAT3 promoter; endogenous in cells
Procedure: 1-1) Experiment on the Inhibition of STAT3 Activity
A human prostate cancer cell line (LNCaP stable cell line; plasmid pSTAT3-TA-luc), which contains a stably operating STAT3 promoter, was cultured in RPMI1640 medium (Cat No. 11875, Life Technologies) containing 10% fetal bovine serum (FBS) (Cat No. SH30396, Thermo Scientific) and 150 μg/mL G-418 solution (Cat No. 04 727 894 001, Roche). The reporter gene assay using LNCaP stable cell line was performed in RPMI1640 medium containing 3% DCC-FBS without G-418 solution. LNCaP stable cells were plated in two (2) white 96-well plates with 30,000 cells/50 μL in each well. The cells were cultured at 37° C., under 5% CO2 for 24 hours, and then treated with the compounds listed in Examples which were diluted in various concentrations. Subsequently, IL-6 was added to each well with a final concentration of 10 ng/mL. Upon completion of the treatment with the compounds and IL-6, the cells were cultured at 37° C., under 5% CO2 for from 24 to 48 hours. The plates were observed under microscope and drug precipitation and particular findings were investigated and recorded.
The luciferase assay and the cell viability assay were performed respectively with one of the two plates. For the luciferase assay, the liquid media in the 96-well plate was removed, and then, 20 μL of passive cell lysis buffer was added to each well. After shaking the plate for 30 minutes, luciferase activities of each well were measured in a PHERAstar™ microplate reader (BMG LABTECH) using a luciferase assay system (Cat No. E1501, Promega). For the cell viability assay, the 96-well plate was placed at room temperature for 30 minutes, added with 20 μL/well of CellTiter-Glo solution (Cat No. G7573, Promega), and shaken for 10 minutes in order to measure cytotoxicity caused by the compounds listed in Examples with a PHERAstar™ microplate reader (BMG LABTECH). Wells without 0.1% DMSO and stimulation were used as a negative control and wells with 0.1% DMSO and stimulation were used as a positive control.

[2] = tested on: DU-145; test: Cell growth inhibition assay, prostate cancer cell line DU-145; settings: Homo sapiens, DU-145 prostate cancer cell line
Procedure: (§1) The inhibitory effects of the compounds of the present invention against the growth of cancer cells were evaluated as shown below. The cancer cell lines including stomach cancer cell line (AGS), breast cancer cell lines (MDA-MB-231, MDA-MB-468, and BT-549), prostate cancer cell lines (LNCaP and DU-145), colon cancer cell line (HCT116), ovarian cancer cell line (SW626), liver cancer cell line (Hep3B), kidney cancer cell line (ACHN), lung cancer cell line (NCI-H23) and blood cancer cell lines (HEL92.1.7 and U266) were cultured under the protocol provided by each supplier. A medium supplemented with 10 ng/mL of IL-6 was used for LNCaP, a prostate cancer cell line, when treated with a drug. Each type of cells to be used in experiments were sub-cultured in a 96-well plate by counting the exact number of cells using Tali™ Image-based Cytometer (Life Technologies). In a 96-well plate, AGS, HCT116, and DU-145 were employed with 3,000 cells/well; NCI-H23, SW626, Hep3B, ACHN, BT-549, MDA-MB-231, HEL92.1.7, and U266 were employed with 5,000 cells/well; and LNCaP and MDA-MB-468 were employed with 10,000 cells/well. The cells were treated with the compounds listed in Examples which were diluted in various concentrations. Upon completion of the compounds treatment, AGS, HCT116, SW626, DU145, NCI-H23, Hep3B, ACHN, BT-549, LNCaP, HEL92.1.7, and U266 cells were cultured at 37° C. under 5% CO2 for from 72 to 96 hours, and MDA-MB-231 and MDA-MB-468 cells were cultured at 37° C. in air for from 72 to 96 hours. Subsequently, the cells were observed under microscope and drug precipitation and particular findings were investigated and recorded. And then, the 96-well plate was placed at room temperature for 30 minutes, added with 20 μL/well of CellTiter-Glo solution (Cat No. G7573, Promega) and shaken for 10 minutes, followed by being subjected to the measurement using PHERAstar™ microplate reader (BMG LABTECH) according to the supplier's general luminometer protocol. Wells where only culture liquid added without cell plating were used as a negative control, whereas wells where culture liquid containing 0.1% DMSO instead of the compounds listed in Examples were used as a positive control.

[3] = tested on: LNCaP; test: Cell growth inhibition assay, prostate cancer cell line LNCaP (medium with 10 ng/mL IL-6); settings: Homo sapiens, medium supplemented with 10 ng/mL of IL-6, 10,000 cells/well
Procedure: as §1

T1 sequence (P40763 whole entry): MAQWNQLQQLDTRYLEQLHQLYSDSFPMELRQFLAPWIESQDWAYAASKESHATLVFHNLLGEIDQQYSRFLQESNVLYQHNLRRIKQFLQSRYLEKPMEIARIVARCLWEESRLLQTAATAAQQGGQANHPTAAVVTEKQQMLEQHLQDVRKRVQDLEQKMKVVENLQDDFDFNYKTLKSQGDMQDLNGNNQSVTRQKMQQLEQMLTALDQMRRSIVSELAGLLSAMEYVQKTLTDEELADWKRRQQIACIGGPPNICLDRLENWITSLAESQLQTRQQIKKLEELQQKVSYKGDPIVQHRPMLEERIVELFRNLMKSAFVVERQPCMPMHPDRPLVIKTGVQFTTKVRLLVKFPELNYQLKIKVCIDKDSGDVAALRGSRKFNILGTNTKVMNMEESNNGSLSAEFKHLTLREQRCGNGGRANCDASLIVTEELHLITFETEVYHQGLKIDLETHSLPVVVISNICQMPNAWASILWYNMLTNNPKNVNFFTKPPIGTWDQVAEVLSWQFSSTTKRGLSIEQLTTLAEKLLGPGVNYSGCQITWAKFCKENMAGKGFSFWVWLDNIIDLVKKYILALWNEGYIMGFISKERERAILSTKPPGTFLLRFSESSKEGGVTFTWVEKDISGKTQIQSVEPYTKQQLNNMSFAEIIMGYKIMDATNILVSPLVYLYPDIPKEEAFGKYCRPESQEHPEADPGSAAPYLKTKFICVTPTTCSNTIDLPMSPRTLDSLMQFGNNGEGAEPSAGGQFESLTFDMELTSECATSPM

Compound	IC50 [1] [µM]	IC50 [2] [µM]	IC50 [3] [µM]
CC(C)(c1ccc(Cl)cc1)c1cc(Cl)cc(NC(=O)c2cc3cc(Cl)c(NS(C)(=O)=O)cc3s2)c1 [Example 184, 5-chloro-N-(3-chloro-5-(2-(4-chlorophenyl)propan-2-yl)phenyl)-6-(methylsulfonamido)benzo[b]thiophene-2-carboxamide]	0.042	0.04	0.35
CS(=O)(=O)Nc1cc2cc(C(=O)Nc3cc(Cl)cc(C4(c5ccc(Cl)cc5)CC4)c3)sc2cc1Cl [Example 433, 6-chloro-N-(3-chloro-5-(1-(4-chlorophenyl)cyclopropyl)phenyl)-5-(methylsulfonamido)benzo[b]thiophene-2-carboxamide]	0.013	0.006	0.01
COc1ccc(Oc2cc(Cl)cc(NC(=O)c3cc4cc(NS(C)(=O)=O)ccc4s3)c2)cc1 [Example 447, N-(3-chloro-5-(4-methoxyphenoxy)phenyl)-5-(methylsulfonamido)benzo[b]thiophene-2-carboxamide]	0.27	0.14	0.49
CC(C)Oc1cc(CN2CCOCC2)cc(C(C)(C)c2cc(Cl)cc(NC(=O)c3cc4cc(NS(C)(=O)=O)ccc4s3)c2)c1 [Example 126, N-(3-chloro-5-(2-(3-isopropoxy-5-(morpholinomethyl)phenyl)propan-2-yl)phenyl)-5-(methylsulfonamido)benzo[b]thiophene-2-carboxamide]	0.1	0.11	0.11
Cc1ccc(C(C)(C)c2cc(Cl)cc(NC(=O)c3cc4cc(NS(C)(=O)=O)c(Cl)cc4s3)c2)s1 [Example 179, 6-chloro-N-(3-chloro-5-(2-(5-methylthiophen-2-yl)propan-2-yl)phenyl)-5-(methylsulfonamido)benzo[b]thiophene-2-carboxamide]	0.004	0.004	0.007
CC(C)Oc1cc(CN2CCC3(CC2)COC3)cc(C(C)(C)c2cc(Cl)cc(NC(=O)c3cc4cc(NS(C)(=O)=O)ccc4s3)c2)c1 [Example 134, N-(3-(2-(3-((2-oxa-7-azaspiro[3,5]nonan-7-yl)methyl)-5-isopropoxyphenyl)propan-2-yl)-5-chlorophenyl)-5-(methylsulfonamido)benzo[b]thiophene-2-carboxamide]	0.27	0.16	0.84
CS(=O)(=O)Nc1ccc2sc(C(=O)Nc3cc(Cl)cc(Oc4ccc(Cl)c(F)c4)c3)cc2c1 [Example 466, N-(3-chloro-5-(4-chloro-3-fluorophenoxy)phenyl)-5-(methylsulfonamido)benzo[b]thiophene-2-carboxamide]	0.12	0.063	0.079
CC(C)(c1cc(Cl)cc(NC(=O)c2cc3cc(NS(C)(=O)=O)c(Cl)cc3s2)c1)c1ccc(C#N)s1 [Example 186, 6-chloro-N-(3-chloro-5-(2-(5-cyanothiophen-2-yl)propan-2-yl)phenyl)-5-(methylsulfonamido)benzo[b]thiophene-2-carboxamide]	0.1	0.023	0.039
CC(C)(c1cc(Cl)cc(NC(=O)c2cc3cc(NS(C)(=O)=O)ccc3s2)c1)c1cc(OC2CC2)cc(OC(F)(F)F)c1 [Example 79, N-(3-chloro-5-(2-(3-cyclopropoxy-5-(trifluoromethoxy)phenyl)propan-2-yl)phenyl)-5-(methylsulfonamido)benzo[b]thiophene-2-carboxamide]	0.014	0.008	0.039
CC(C)Oc1cc(OC(F)(F)F)cc(N(C)c2cc(Cl)cc(NC(=O)c3cc4cc(NS(C)(=O)=O)ccc4s3)c2)c1 [Example 443, N-(3-chloro-5-((3-isopropoxy-5-(trifluoromethoxy)phenyl)(methyl)amino)phenyl)-5-(methylsulfonamido)benzo[b]thiophene-2-carboxamide]	0.065	0.02	0.039
CS(=O)(=O)Nc1ccc2sc(C(=O)Nc3cc(Cl)cc(Oc4cc(F)cc(F)c4)c3)cc2c1 [Example 463, N-(3-chloro-5-(3,5-difluorophenoxy)phenyl)-5-(methylsulfonamido)benzo[b]thiophene-2-carboxamide]	0.19	0.15	0.27
CS(=O)(=O)Nc1cc2cc(C(=O)Nc3cc(Cl)cc(Oc4ccc(OC(F)(F)F)cc4)c3)sc2cc1Cl [Example 480, 6-chloro-N-(3-chloro-5-(4-(trifluoromethoxy)phenoxy)phenyl)-5-(methylsulfonamido)benzo[b]thiophene-2-carboxamide]	0.019	0.007	0.01
CS(=O)(=O)Nc1cc2cc(C(=O)Nc3cc(Cl)cc(Oc4cc(O)cc(Cl)c4)c3)sc2cc1Cl [Example 475, 6-chloro-N-(3-chloro-5-(3-chloro-5-hydroxyphenoxy)phenyl)-5-(methylsulfonamido)benzo[b]thiophene-2-carboxamide]	> 10	> 1.1	> 1.1
Cc1csc(C(C)(C)c2cc(Cl)cc(NC(=O)c3cc4cc(NS(C)(=O)=O)c(Cl)cc4s3)c2)c1 [Example 181, 6-chloro-N-(3-chloro-5-(2-(4-methylthiophen-2-yl)propan-2-yl)phenyl)-5-(methylsulfonamido)benzo[b]thiophene-2-carboxamide]	0.005	0.005	0.006
COc1ccc(C(C)(C)c2cc(Cl)cc(NC(=O)c3cc4cc(NS(C)(=O)=O)c(Cl)cc4s3)c2)cc1 [Example 183, 6-chloro-N-(3-chloro-5-(2-(4-methoxyphenyl)propan-2-yl)phenyl)-5-(methylsulfonamido)benzo[b]thiophene-2-carboxamide]	0.01	0.005	0.013
CS(=O)(=O)Nc1ccc2sc(C(=O)Nc3cc(Cl)cc(Oc4cc(Cl)cc(C#N)c4)c3)cc2c1 [Example 458, N-(3-chloro-5-(3-chloro-5-cyanophenoxy)phenyl)-5-(methylsulfonamido)benzo[b]thiophene-2-carboxamide]	0.25	0.17	0.33
CC(C)Oc1cc(Oc2cc(Cl)cc(NC(=O)c3cc4cc(NS(C)(=O)=O)ccc4s3)c2)cc(OC(F)(F)F)c1 [Example 452, N-(3-chloro-5-(3-isopropoxy-5-(trifluoromethoxy)phenoxy)phenyl)-5-(methylsulfonamido)benzo[b]thiophene-2-carboxamide]	0.079	0.027	0.33
CC(C)Oc1cc(CN2CCS(=O)(=O)CC2)cc(C(C)(C)c2cc(Cl)cc(NC(=O)c3cc4cc(NS(C)(=O)=O)ccc4s3)c2)c1 [Example 132, N-(3-chloro-5-(2-(3-((1,1-dioxidothiomorpholino)methyl)-5-isopropoxyphenyl)propan-2-yl)phenyl)-5-(methylsulfonamido)benzo[b]thiophene-2-carboxamide]	0.35	0.41	0.97
